The supplement of paper PMC10307832

Tests used:
Assay in all cases: relative viability (nuclei count vs DMSO), 5 days (fraction); higher = more cells survive
[1] = compound: CC(C)C[C@H](NC(=O)[C@H](Cc1ccccc1)NC(=O)c1cnccn1)B(O)O [Bortezomib] + Cc1nc(Nc2ncc(C(=O)Nc3c(C)cccc3Cl)s2)cc(N2CCN(CCO)CC2)n1 [Dasatinib] (partner 0.075 µM)
Outline: (§1)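 Nuclei were stained with Hoechst during a one-step fixation (final 0.05% Triton X-100, 1% formaldehyde, 1 ug/ml Hoechst) carried out 5 days after dosing, then counted on 4× images. The cells, lung cancer lines in 1536-well plates, had been dosed by pin tool the day after seeding with one drug alone or a fixed anchor-drug dose plus five library-drug doses (not always all listed) in √10 steps. Relative viability is the nuclei count in treated wells divided by that in vehicle wells, and each value is the median of duplicate plates.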

[2] = compound: CC(C)C[C@H](NC(=O)[C@H](Cc1ccccc1)NC(=O)c1cnccn1)B(O)O [Bortezomib] + CCNC(=O)c1noc(-c2cc(C(C)C)c(O)cc2O)c1-c1ccc(CN2CCOCC2)cc1 [Luminespib] (partner 0.01 µM)
Outline: as §1

[3] = compound: CC1=CC(=NN1)NC2=CC(=NC(=N2)/C=C/C3=CC=CC=C3)N4CCN(CC4)C + O=C(c1cc(Cc2n[nH]c(=O)c3ccccc23)ccc1F)N1CCN(C(=O)C2CC2)CC1 [Olaparib] (partner 8 µM)
Outline: as §1

[4] = compound: CC1=CC(=NN1)NC2=CC(=NC(=N2)/C=C/C3=CC=CC=C3)N4CCN(CC4)C + Nc1nc2[nH]cc(CCc3ccc(C(=O)N[C@@H](CCC(=O)O)C(=O)O)cc3)c2c(=O)[nH]1 [Pemetrexed] (partner 0.2 µM)
Outline: as §1

| Cell Line | relative viability ([1]; first compound 0.0002 µM) | relative viability ([1]; first compound 0.000632 µM) | relative viability ([1]; first compound 0.002 µM) | relative viability ([1]; first compound 0.006325 µM) | relative viability ([1]; first compound 0.02 µM) | relative viability ([2]; first compound 0.0002 µM) | relative viability ([2]; first compound 0.000632 µM) | relative viability ([2]; first compound 0.002 µM) | relative viability ([2]; first compound 0.006325 µM) | relative viability ([2]; first compound 0.02 µM) | relative viability ([3]; first compound 0.08 µM) | relative viability ([3]; first compound 0.253 µM) | relative viability ([3]; first compound 0.8 µM) | relative viability ([3]; first compound 2.53 µM) | relative viability ([3]; first compound 8 µM) | relative viability ([4]; first compound 0.08 µM) | relative viability ([4]; first compound 0.253 µM) | relative viability ([4]; first compound 0.8 µM) | relative viability ([4]; first compound 2.53 µM) | relative viability ([4]; first compound 8 µM) |
| --- | --- | --- | --- | --- | --- | --- | --- | --- | --- | --- | --- | --- | --- | --- | --- | --- | --- | --- | --- | --- |
| NCI-H2023 | 0.59 | 0.556 | 0.558 | 0.124 | 0.0683 | 0.638 | 0.694 | 0.789 | 0.118 | 0.0549 | 0.464 | 0.586 | 0.384 | 0.0975 | 0.0526 | 0.214 | 0.283 | 0.198 | 0.117 | 0.0581 |
| EBC-1 | – | – | – | – | – | – | – | – | – | – | 0.631 | 0.753 | 0.7 | 0.46 | 0.114 | – | – | – | – | – |
| NCI-H1666 | 0.759 | 0.845 | 0.837 | 0.329 | 0.326 | 0.951 | 1.02 | 0.98 | 0.319 | 0.322 | 0.748 | 0.7 | 0.767 | 0.741 | 0.501 | 0.735 | 0.914 | 0.839 | 0.846 | 0.792 |
| NCI-H1975 | 0.385 | 0.266 | 0.106 | 0.0685 | 0.084 | 0.192 | 0.122 | 0.158 | 0.138 | 0.177 | 0.75 | 0.842 | 0.726 | 0.389 | 0.115 | 0.281 | 0.281 | 0.286 | 0.187 | 0.137 |
| NCI-H1793 | 0.35 | 0.324 | 0.381 | 0.361 | 0.168 | 0.184 | 0.151 | 0.171 | 0.204 | 0.127 | 0.845 | 1.06 | 0.667 | 0.138 | 0.0993 | 0.698 | 1.03 | 0.644 | 0.137 | 0.0795 |
| NCI-H1355 | 0.69 | 0.753 | 0.813 | 0.18 | 0.156 | 0.668 | 0.657 | 0.645 | 0.233 | 0.167 | 0.707 | 0.813 | 0.69 | 0.324 | 0.113 | 1.04 | 1.01 | 1.01 | 0.902 | 0.546 |
| SW 900 | 0.74 | 0.507 | 0.167 | 0.107 | 0.116 | 0.167 | 0.198 | 0.184 | 0.163 | 0.16 | 0.863 | 0.89 | 0.805 | 0.298 | 0.107 | 0.469 | 0.491 | 0.49 | 0.407 | 0.102 |
| A549 | – | – | – | – | – | – | – | – | – | – | 0.292 | 0.529 | 0.287 | 0.156 | 0.0245 | – | – | – | – | – |
| NCI-H2170 | 0.546 | 0.378 | 0.502 | 0.16 | 0.144 | 0.46 | 0.534 | 0.744 | 0.516 | 0.202 | 0.512 | 0.65 | 0.577 | 0.263 | 0.102 | 0.266 | 0.246 | 0.248 | 0.193 | 0.181 |
| EKVX | 0.544 | 0.526 | 0.707 | 0.397 | 0.185 | 0.833 | 0.827 | 0.89 | 0.646 | 0.113 | 0.779 | 0.804 | 0.904 | 0.695 | 0.157 | 0.366 | 0.5 | 0.674 | 0.361 | 0.197 |
| RERF-LC-KJ | 0.833 | 0.695 | 0.946 | 0.219 | 0.234 | 1.16 | 1.21 | 0.986 | 0.291 | 0.273 | 0.982 | 0.88 | 0.882 | 0.243 | 0.201 | 0.439 | 0.484 | 0.484 | 0.397 | 0.224 |
| NCI-H1755 | 0.449 | 0.326 | 0.418 | 0.176 | 0.196 | 0.494 | 0.418 | 0.417 | 0.21 | 0.181 | 0.877 | 0.89 | 0.856 | 0.514 | 0.253 | 0.428 | 0.381 | 0.462 | 0.32 | 0.294 |
| NCI-H661 | 0.851 | 0.836 | 0.773 | 0.331 | 0.168 | 0.928 | 0.858 | 0.921 | 0.4 | 0.151 | 0.658 | 0.826 | 0.752 | 0.424 | 0.275 | 0.884 | 0.898 | 0.855 | 0.576 | 0.326 |
| LOU-NH91 | 0.539 | 0.529 | 0.519 | 0.271 | 0.226 | 0.352 | 0.312 | 0.279 | 0.252 | 0.231 | 0.871 | 0.958 | 0.926 | 0.875 | 0.385 | 0.383 | 0.389 | 0.391 | 0.394 | 0.361 |
| LXF-289 | 0.374 | 0.151 | 0.227 | 0.0474 | 0.0368 | 0.68 | 0.598 | 0.639 | 0.138 | 0.074 | 1.05 | 1.04 | 0.87 | 0.411 | 0.055 | 0.872 | 0.874 | 0.895 | 0.615 | 0.444 |
| HCC-44 | – | – | – | – | – | 0.983 | 0.984 | 0.585 | 0.187 | 0.197 | 0.974 | 1.01 | 0.956 | 0.965 | 0.759 | 0.642 | 0.644 | 0.631 | 0.622 | 0.557 |
| HARA | 0.206 | 0.239 | 0.259 | 0.105 | 0.0621 | 0.718 | 0.77 | 0.607 | 0.0345 | 0.0465 | 0.617 | 1.01 | 0.582 | 0.121 | 0.099 | 0.234 | 0.252 | 0.252 | 0.165 | 0.175 |
